Consider four compounds from BindingDB's records for doi:10.1016/S0960-894X(01)80999-9 (1993).

Test [1] is described as follows: In vitro antagonistic activity towards LTB4 receptor was evaluated by inhibition of binding of [3H]LTB4 to human neutrophils.
Test [2] addresses Leukotriene B4 receptor (Cavia porcellus). The experiment in a line: Compound was evaluated for inhibition of binding of [3H]LTB4 to LTB4 receptor in guinea-pig lung membranes.

The Ki is the equilibrium dissociation constant of an inhibitor or competing ligand from its target. Low values mean a stronger hold on the target, high ones a looser hold on the target.

In test [1], `CCc1cc(C(C)=O)c(O)cc1OCCCOc1ccc(C(=O)c2cccc(C(=O)O)c2)cc1CCC(=O)O` [3-[2-[3-(4-acetyl-2-ethyl-5-olatophenoxy)propoxy]-5-(3-carboxylatobenzoyl)phenyl]propanoate] had a Ki of 6.8 nM.

For `COc1ccc(/C=C/CCCCOc2ccc(C(=O)c3cccc(C(=O)O)c3)cc2CCC(=O)O)cc1` [(Z)-3-{3-(2-Carboxy-ethyl)-4-[6-(4-methoxy-phenyl)-hex-5-enyloxy]-benzoyl}-benzoic acid], affinity in test [1] was put at a Ki of 7.8 nM.

Turning to `CCc1cc(C(C)=O)c(O)cc1OCCCOc1ccc2c(=O)c3cc(C(=O)O)ccc3oc2c1` [disodium 6-[3-(4-acetyl-2-ethyl-5-olatophenoxy)propoxy]-9-oxo-9H-2-xanthenecarboxylate], affinity in test [1] was put at a Ki of 751 nM.

As to `COc1ccc(/C=C/CCCCOc2ccc3c(=O)c4cc(C(=O)O)ccc4oc3c2CCC(=O)O)cc1` [LY-210073], in test [2], the Ki turned out to be 45 nM.
